The values that follow come from patent publication US8628961B2, “Small molecule antagonists of phosphatidylinositol-3,4,5-triphosphate (PIP3) and uses thereof” (Tufts University, priority 2010, dated 2014).

Like-named read-outs stand apart in the source and are kept apart here.

One assay deals with U87MG cells. Put plainly: cells. The assay is classed as cell-based. As to conditions: for IC50: U87MG cells, 48 hr, ATP assay, read-out: Cell Viability IC50. As to the method: Based on the critical role of PIP3-dependent […] signaling in the regulation of cell survival, the effect of PIT-1 on the cancer cell viability was tested. Cancer cells were seeded into 96-well plates (white plates for ATP assay; black plates for fluorescent assay; clear plates for MTS assay) at the density of 5-10×10^3 cells per well in 100 μl of the appropriate media. Compounds were added at a series of concentrations and incubated for different times. For the ATP assay, a luminescence-based commercial kit (CellTiter-Glo, Promega, Madison, Wis.) was used. Thirty microliters of cell lysis/ATP detection reagent was added to each well, mixed for 10 min at room temperature, and the luminescence was measured using a Wallac Victor 3 plate reader (Perkin-Elmer, Wellesley, Mass.). For the MTS assay, a CellTiter 96 AQueous Non-Radioactive Cell Proliferation Assay Kit (Promega, Madison, Wis., USA) was used. Twenty microliters of the combined MTS/PMS solution was added into each well, incubated for 4 hr at 37° C., and the absorbance at 490 nm was measured using a Wallac Victor 3 plate reader. For the Sytox cell death assay, measuring loss of plasma membrane integrity, cells were incubated with 1 μM Sytox Green reagent (Molecular Probes, Eugene, Oreg.) for 30 min at 37° C. and the fluorescence intensity was measured using Wallac Victor 3 plate reader with excitation at 485 nm and emission at 545 nm. Next, 5 μl of 20% (v/v) Triton X-100 solution was added to each well and incubated for 1 hr at 37° C., and the signal was measured again. The ratio of values (percentage of dead cells in each well) before and after Triton X-100 treatment was calculated and normalized to the relevant controls not subjected to the cytotoxic stimuli. IC50 values were determined using Origin6 software (MicroCal, LLC, Northampton, Mass.).
To measure induction of cell death by PIT-1 derivatives, U87MG cells were incubated with PITs (1.56-300 μM) for 48 hr. Cell viability was determined using ATP assay.

The test system of the next assay is human cancer cells. Put plainly: Cancer cell migration, transwell migration and wound closure models. In kind it is cell-based. The following applies: for cancer cell migration: model not specified. The protocol: Two models of cell migration were used, a transwell migration model and a wound closure model. Migration of cancer and endothelial cells was evaluated using 24-transwell Boyden chamber (Costar, Bedford, Mass.) with a polystyrene membrane (6.5 mm diameter, 10 μm thickness, and 8 μm pore size). Cells were suspended in serum-free media and seeded in the upper compartment of each well (2×10^4 cells/well) in the presence or absence of different compounds at the indicated concentrations. The lower compartment contained 600 μl of serum-free culture media supplemented with growth factors. After an 8-hr incubation at 37° C., cells were fixed and stained with 0.1% crystal violet. Non-migrating cells on the upper surface of the filter were removed, and the stained cells that migrated to the lower side were photographed using a phase-contrast microscope (Nikon, Japan) in five random fields. The cells were lysed with 10% acetic acid, and colorimetric determination was made at 595 nm using Wallac Victor 3 plate reader.
Cancer or endothelial cells were seeded into fibronectin-coated 96-well plates (2×10^4 cells/well). After reaching confluence, cell monolayers were scratched with a pipette tip to obtain a “wound”. The media and dislodged cells were aspirated and replaced by fresh serum-free media in the presence of growth factors, with or without compounds at different concentrations. After an 8-hr incubation at 37° C., cells were photographed using a phase-contrast microscope in five random fields. The width of wounded cell monolayers in images was measured and the inhibition rates of migration were calculated as inhibition rate=[1−(compound-treated group/control group)]×100%, and IC50 value was determined using Origin6 software (MicroCal, LLC, Northampton, Mass.).

A further assay has as its target Btk PH domain (Homo sapiens (Human), UniProt Q06187). As to the kind of experiment: PH domain translocation assay (GFP fusion, plasma membrane). In kind it is cell-based. The following applies: PDGF stimulation. As to the method: Cells were transfected with the corresponding GFP-fusion vectors, serum starved overnight, and incubated with 100 μM PITs or PIT-1 is for 2 hr, followed by stimulation with 100 ng/ml PDGF or 250 ng/ml PMA for 5 min. The translocation was analyzed using fluorescent microscope and was quantitated by counting the number of cells with translocated PH domains in five random fields.
To begin characterizing cellular activity of PITs, a PH domain translocation assay was performed, measuring PIP3-induced association of GFP-fused PH domains with the plasma membrane. This method provides useful means for monitoring status of the PH domain/PIP3 binding in the intact cells. Varnai P et al. (1999) J Biol Chem 274:10983-9. Several PH-domain-containing proteins, which are known to bind PIP3 specifically and efficiently, were examined. […] Oikawa T et al. (2004) Nat Cell Biol 6:420-6.

In a further assay the test system is SUM159 cells. Put plainly: Cell polarization in wounded monolayers after PDGF. In kind it is cell-based, human. As to conditions: wound healing model, 100 μM. The protocol: In order to measure cell polarization, wounds were generated in SUM159 cell monolayers, followed by serum starvation and treatment with 100 μM PIT-1, PIT-2, PIT-1i-1, or PIT-1i-2 for 2 hr. Cells were stimulated for 15 min with 100 ng/ml PDGF, fixed and stained with TRITC-phalloidin for F-actin (red), acetylated tubulin antibody (green) for microtubule organization center (MTOC), and Hoechst for nuclei (blue). Cell polarization was evaluated by analysis of the relative location of the MTOC and nucleus. […] The number of polarized cells was counted in five random fields under fluorescent microscope.

The next assay deals with Akt PH domain (Homo sapiens (Human), UniProt P31749). As to the kind of experiment: Fluorescence polarization (FP) PIP3/Akt PH domain binding assay. As to conditions: for IC50: 15 nM TMR-conjugated PIP3, PITs 6.25-200 μM, 30 min; for activity of PIT-1 analogs in vitro: negative controls. The source says: In order to identify compounds that disrupt the interaction between PIP3 and PH domains, a high-throughput fluorescence polarization (FP)-binding assay was developed using recombinant 1-123 amino acid N-terminal fragment of human Akt1 (also referred to herein simply as Akt), encompassing the PH domain (PH123 protein), and fluorescent […] PIP3 molecule. The amino acid sequence of human Akt1 is publicly available as, for example, GenBank Accession No. NP_001014432.1 (SEQ ID NO:1), and the corresponding DNA sequence is publicly available as, for example, GenBank Accession No. NM_001014432. Briefly, 5 μM recombinant GST fusion proteins containing 1-123 a.a. N-terminal fragment of human Akt1 (PH 123) or 100 nM 441-551 a.a. region of human PDK1 were incubated with 15 nM TMR-labeled PIP3, PIP2, or PIP5 in buffer containing 50 mM Tris-HCl (pH 7.5), 150 mM NaCl, and 5 mM b-ME for 15 min at room temperature in the dark. FP values were determined using Wallac Victor 3 plate reader. For the primary screen, 50,000 diverse small molecules from Harvard Institute of Chemistry and Cell Biology were screened (iccb.med.harvard.edu). Incubations were carried out for 1 hr. For secondary assays, PIT compounds were added at various concentrations (6.25, 12.5, 25, 50, 100, 150 and 200 μM), followed by a 30 min incubation. The inhibition rates were calculated as inhibition rate=[1−(compound-treated group/control group)]×100%, and IC50 value was determined using Origin6 software (MicroCal, LLC, Northampton, Mass.).
(Fluorescence polarisation rises when a labelled molecule tumbles more slowly, as on binding a larger partner.)

Chain of Akt PH domain (P31749 1-123): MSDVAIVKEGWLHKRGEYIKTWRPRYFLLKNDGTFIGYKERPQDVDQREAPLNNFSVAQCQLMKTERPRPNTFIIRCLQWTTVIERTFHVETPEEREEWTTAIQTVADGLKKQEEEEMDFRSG
Chain of Btk PH domain (Q06187 3-133): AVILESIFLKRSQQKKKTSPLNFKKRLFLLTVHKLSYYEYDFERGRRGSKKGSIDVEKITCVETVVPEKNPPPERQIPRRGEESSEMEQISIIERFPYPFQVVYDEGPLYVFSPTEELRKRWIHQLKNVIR

As to `O=C(NC(=S)Nc1cc([N+](=O)[O-])cc(Cl)c1O)c1ccccc1` [PIT-1], in the assay on U87MG cells, the “killing of U87MG cells compared with LY294002” value is “more pronounced than that by the PI3K inhibitor LY294002”. The IC50 in the assay with U87MG cells (Homo sapiens, U-87 MG) was 39.9 ± 3.2 µM; on Akt PH domain it was 31 ± 2.5 µM. For the same compound, in the assay with human cancer cells (dose-dependent), the “growth factor-induced transwell migration” value was “substantially inhibited”. Besides, in the assay on human cancer cells, the cancer cell migration result was “much stronger than that of Akt kinase inhibitor VIII”. For the same compound, the “plasma membrane translocation of Btk PH domain” value (from here on “plasma membrane translocation”) on Btk PH domain was “significantly inhibited the translocation”. In addition, in the assay on SUM159 cells, the “cell polarization and lamellipodia formation induced by PDGF” value was “effective at preventing cell polarization and lamellipodia formation”.
Consider `O=C(NC(=O)c1ccccc1)Nc1cc([N+](=O)[O-])cc(Cl)c1O` [PIT-1i-1, reference compound], for which the IC50 in the assay with U87MG cells was more than 200 µM. In the assay with human cancer cells, the cancer cell migration entry was “neither PIT-1i-1 nor PIT-1i-2 was active”. Besides, the “plasma membrane translocation” value on Btk PH domain was “inactive”. In the assay on SUM159 cells, the “cell polarization and lamellipodia formation induced by PDGF” value is recorded as “failed to prevent cell polarization”. At Akt PH domain, the IC50 is more than 200 µM and the “activity of PIT-1 analogs in vitro” value is “inactive analogs”.
Turning to `COc1c(Cl)cc([N+](=O)[O-])cc1NC(=S)NC(=O)c1ccccc1` [PIT-1i-2], the IC50 in the assay with U87MG cells was more than 200 µM. Also, the cancer cell migration entry in the assay with human cancer cells is “neither PIT-1i-1 nor PIT-1i-2 was active”. At Btk PH domain, the “plasma membrane translocation” value was “inactive”. Moreover, the “cell polarization and lamellipodia formation induced by PDGF” value in the assay on SUM159 cells was “failed to prevent cell polarization”. Also, at Akt PH domain, the IC50 was more than 200 µM and the “activity of PIT-1 analogs in vitro” value is “inactive analogs”.

Usually IC50 stands for the concentration that inhibits the measured activity by half.
